Source: PubChem BioAssay AID1963958 (Molecular Pharmacology Branch, DTP, NCI, 2024)
One block for each molecule: values may come before it.

Tested on: MDA-MB-231 multicell spheroids, viability
Assay: Anticancer human tumor MDA-MB-231 cell line growth inhibition [PI3K];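 further: spheroids exposed to agents for seven days before reading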;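 on viability, T/C: percent of vehicle control luminescence with DMSO treated spheroids as 100%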
Conditions: for IC50: curve of first compound; for viability, T/C: stronger effect = lower value
How it was run: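 Tumor cells were combined with HUVEC and MSCs into spheroids, then dosed with PI3K-inhibitor combinations over half-log ranges capped near clinical Cmax or 10 microM.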

[1] = second compound 0.00316 µM, first compound 0.0316 µM
[2] = second compound 0.00316 µM, first compound 0.1 µM
[3] = second compound 0.00316 µM, first compound 0.316 µM
[4] = second compound 0.00316 µM, first compound 1 µM
[5] = second compound 0.00316 µM, first compound 3.16 µM
[6] = second compound 0.00316 µM, first compound 10 µM
[7] = second compound 0.01 µM, first compound 0.0316 µM
[8] = second compound 0.01 µM, first compound 0.1 µM
[9] = second compound 0.01 µM, first compound 0.316 µM
[10] = second compound 0.01 µM, first compound 1 µM
[11] = second compound 0.01 µM, first compound 3.16 µM
[12] = second compound 0.01 µM, first compound 10 µM
[13] = second compound 0.0316 µM, first compound 0.0316 µM
[14] = second compound 0.0316 µM, first compound 0.1 µM
[15] = second compound 0.0316 µM, first compound 0.316 µM
[16] = second compound 0.0316 µM, first compound 1 µM
[17] = second compound 0.0316 µM, first compound 3.16 µM
[18] = second compound 0.0316 µM, first compound 10 µM
[19] = second compound 0.1 µM, first compound 0.0316 µM
[20] = second compound 0.1 µM, first compound 0.1 µM
[21] = second compound 0.1 µM, first compound 0.316 µM
[22] = second compound 0.1 µM, first compound 1 µM
[23] = second compound 0.1 µM, first compound 3.16 µM
[24] = second compound 0.1 µM, first compound 10 µM
[25] = second compound 0.316 µM, first compound 0.0316 µM
[26] = second compound 0.316 µM, first compound 0.1 µM
[27] = second compound 0.316 µM, first compound 0.316 µM
[28] = second compound 0.316 µM, first compound 1 µM
[29] = second compound 0.316 µM, first compound 3.16 µM
[30] = second compound 0.316 µM, first compound 10 µM
[31] = second compound 1 µM, first compound 0.0316 µM
[32] = second compound 1 µM, first compound 0.1 µM
[33] = second compound 1 µM, first compound 0.316 µM
[34] = second compound 1 µM, first compound 1 µM
[35] = second compound 1 µM, first compound 3.16 µM
[36] = second compound 1 µM, first compound 10 µM

IC50 (second compound 0.00316 µM): > 10000 nM | IC50 (second compound 0.01 µM): 8600 nM | IC50 (second compound 0.0316 µM): 2020 nM | IC50 (second compound 0.1 µM): < 31.6 nM | IC50 (second compound 0.316 µM): < 31.6 nM | IC50 (second compound 1 µM): < 31.6 nM
SMILES: C#Cc1c(F)ccc2cc(O)cc(-c3ncc4c(N5CC6CCC(C5)N6)nc(OCC56CCCN5CC(F)C6)nc4c3F)c12 (stereo not drawn) + COc1c(OCCCN2CCOCC2)ccc2c3n(c(=NC(=O)c4cnc(N)nc4)nc12)CCN3
viability, T/C [1]: 96% | viability, T/C [2]: 101% | viability, T/C [3]: 81.7% | viability, T/C [4]: 88.4% | viability, T/C [5]: 78.4% | viability, T/C [6]: 52.7% | viability, T/C [7]: 77.9% | viability, T/C [8]: 77.8% | viability, T/C [9]: 72.9% | viability, T/C [10]: 74.2% | viability, T/C [11]: 66.3% | viability, T/C [12]: 47.5% | viability, T/C [13]: 60.6% | viability, T/C [14]: 56.3% | viability, T/C [15]: 60.5% | viability, T/C [16]: 54.6% | viability, T/C [17]: 45.7% | viability, T/C [18]: 35% | viability, T/C [19]: 47% | viability, T/C [20]: 46.7% | viability, T/C [21]: 46.9% | viability, T/C [22]: 40.8% | viability, T/C [23]: 33% | viability, T/C [24]: 21.5% | viability, T/C [25]: 32.2% | viability, T/C [26]: 31.5% | viability, T/C [27]: 26.4% | viability, T/C [28]: 23.4% | viability, T/C [29]: 18.1% | viability, T/C [30]: 13.3% | viability, T/C [31]: 24.8% | viability, T/C [32]: 23.1% | viability, T/C [33]: 20.2% | viability, T/C [34]: 16.8% | viability, T/C [35]: 15.1% | viability, T/C [36]: 10.4%

IC50 (second compound 0.00316 µM): > 10000 nM | IC50 (second compound 0.01 µM): > 10000 nM | IC50 (second compound 0.0316 µM): > 10000 nM | IC50 (second compound 0.1 µM): < 31.6 nM | IC50 (second compound 0.316 µM): < 31.6 nM | IC50 (second compound 1 µM): < 31.6 nM
SMILES: C=CC(=O)N1CCN(c2nc(=O)n(-c3c(C)ccnc3C(C)C)c3nc(-c4c(O)cccc4F)c(F)cc23)C(C)C1 (stereo not drawn) + COc1c(OCCCN2CCOCC2)ccc2c3n(c(=NC(=O)c4cnc(N)nc4)nc12)CCN3
viability, T/C [1]: 94.2% | viability, T/C [2]: 91.6% | viability, T/C [3]: 104% | viability, T/C [4]: 112% | viability, T/C [5]: 122% | viability, T/C [6]: 105% | viability, T/C [7]: 83.5% | viability, T/C [8]: 82.7% | viability, T/C [9]: 85.4% | viability, T/C [10]: 93.2% | viability, T/C [11]: 103% | viability, T/C [12]: 85.8% | viability, T/C [13]: 59.1% | viability, T/C [14]: 58.9% | viability, T/C [15]: 61.6% | viability, T/C [16]: 62.5% | viability, T/C [17]: 64.8% | viability, T/C [18]: 48% | viability, T/C [19]: 42.3% | viability, T/C [20]: 45.3% | viability, T/C [21]: 46.7% | viability, T/C [22]: 46.1% | viability, T/C [23]: 45.7% | viability, T/C [24]: 33.6% | viability, T/C [25]: 31.1% | viability, T/C [26]: 31.4% | viability, T/C [27]: 32.7% | viability, T/C [28]: 31.7% | viability, T/C [29]: 27.6% | viability, T/C [30]: 26.7% | viability, T/C [31]: 24.8% | viability, T/C [32]: 24.3% | viability, T/C [33]: 23.2% | viability, T/C [34]: 26.3% | viability, T/C [35]: 29.3% | viability, T/C [36]: 25.7%

IC50 (second compound 0.00316 µM): > 10000 nM | IC50 (second compound 0.01 µM): > 10000 nM | IC50 (second compound 0.0316 µM): > 10000 nM | IC50 (second compound 0.1 µM): < 31.6 nM | IC50 (second compound 0.316 µM): < 31.6 nM | IC50 (second compound 1 µM): < 31.6 nM
SMILES: CC(Cn1ccc(-c2ccc(C#N)c(Cl)c2)n1)NC(=O)c1cc(C(C)O)[nH]n1 (stereo not drawn) + COc1c(OCCCN2CCOCC2)ccc2c3n(c(=NC(=O)c4cnc(N)nc4)nc12)CCN3
viability, T/C [1]: 90% | viability, T/C [2]: 93.5% | viability, T/C [3]: 106% | viability, T/C [4]: 96.9% | viability, T/C [5]: 91.9% | viability, T/C [6]: 84.2% | viability, T/C [7]: 76.8% | viability, T/C [8]: 83.2% | viability, T/C [9]: 80.1% | viability, T/C [10]: 82.6% | viability, T/C [11]: 77.6% | viability, T/C [12]: 67.9% | viability, T/C [13]: 60.8% | viability, T/C [14]: 63.9% | viability, T/C [15]: 60.8% | viability, T/C [16]: 62.5% | viability, T/C [17]: 55% | viability, T/C [18]: 46.2% | viability, T/C [19]: 44.4% | viability, T/C [20]: 47.1% | viability, T/C [21]: 44.1% | viability, T/C [22]: 47.3% | viability, T/C [23]: 45.1% | viability, T/C [24]: 37.6% | viability, T/C [25]: 31.6% | viability, T/C [26]: 30.3% | viability, T/C [27]: 31.4% | viability, T/C [28]: 32% | viability, T/C [29]: 29.6% | viability, T/C [30]: 26.1% | viability, T/C [31]: 24.4% | viability, T/C [32]: 24.8% | viability, T/C [33]: 24.6% | viability, T/C [34]: 25.3% | viability, T/C [35]: 24.8% | viability, T/C [36]: 22.4%

IC50 (second compound 0.00316 µM): 3280 nM | IC50 (second compound 0.01 µM): < 31.6 nM | IC50 (second compound 0.0316 µM): < 31.6 nM | IC50 (second compound 0.1 µM): < 31.6 nM | IC50 (second compound 0.316 µM): < 31.6 nM | IC50 (second compound 1 µM): < 31.6 nM
SMILES: CC1(C)CCC(Nc2ncc(C(F)(F)F)c(-c3c[nH]c4c(P(C)(C)=O)c(C#N)ccc34)n2)CN1 (stereo not drawn) + COc1c(OCCCN2CCOCC2)ccc2c3n(c(=NC(=O)c4cnc(N)nc4)nc12)CCN3
viability, T/C [1]: 52.3% | viability, T/C [2]: 45% | viability, T/C [3]: 49.5% | viability, T/C [4]: 55% | viability, T/C [5]: 55.7% | viability, T/C [6]: 4.47% | viability, T/C [7]: 48.4% | viability, T/C [8]: 43.3% | viability, T/C [9]: 45.8% | viability, T/C [10]: 50.7% | viability, T/C [11]: 45.2% | viability, T/C [12]: 3.69% | viability, T/C [13]: 42.3% | viability, T/C [14]: 43.2% | viability, T/C [15]: 38.2% | viability, T/C [16]: 41.5% | viability, T/C [17]: 38.8% | viability, T/C [18]: 3.49% | viability, T/C [19]: 35.4% | viability, T/C [20]: 31.1% | viability, T/C [21]: 31.5% | viability, T/C [22]: 30.6% | viability, T/C [23]: 30.7% | viability, T/C [24]: 3.64% | viability, T/C [25]: 24.9% | viability, T/C [26]: 23.2% | viability, T/C [27]: 23.9% | viability, T/C [28]: 24.6% | viability, T/C [29]: 24.8% | viability, T/C [30]: 2.87% | viability, T/C [31]: 21.9% | viability, T/C [32]: 20.9% | viability, T/C [33]: 20.7% | viability, T/C [34]: 22% | viability, T/C [35]: 21.9% | viability, T/C [36]: 2.6%
